Assay results taken from patent publication US8404898B2, “Integrated process for the preparation of polybenzimidazole precursors” (E I du Pont de Nemours and Company, priority 2008, dated 2013).

Assay: solubility of TAT salt in water
Format: physicochemical
Conditions: water at 25° C.
Procedure: The reaction mixture containing the precipitated TAT salt is then cooled to about 5° C. to about 15° C. and stirred, then filtered. The TAT salt is then washed 44. […] Using an agitated filter unit during the wash procedures can allow for a reduction of the wash volumes. Under such circumstances, using small amounts of cold (e.g., about 5° C.) water instead of the aqueous acid would be effective; cold water would be used because of lower solubility of the TAT salt in cold water versus, e.g., room temperature. For example, the solubility of TAT.4HCl in water at 25° C. is about 16 wt %.

Cc1c(N)c(N)cc(N)c1N [TAT.4HCl, 2,3,5,6-tetraminotoluene]
solubility in water: about 16 wt %
